{"source": "paper PMC9120017", "about": "“Inhibition mechanism of the chloride channel TMEM16A by the pore blocker 1PBC” (Nature Communications, 2022)", "molecular_target": "T1, wild-type mouse TMEM16A (Mus musculus, UniProt Q8BHY3)", "T1 construct": "expressed in transfected cells; host or cells: HEK293T", "T1 sequence (Q8BHY3 1-960)": "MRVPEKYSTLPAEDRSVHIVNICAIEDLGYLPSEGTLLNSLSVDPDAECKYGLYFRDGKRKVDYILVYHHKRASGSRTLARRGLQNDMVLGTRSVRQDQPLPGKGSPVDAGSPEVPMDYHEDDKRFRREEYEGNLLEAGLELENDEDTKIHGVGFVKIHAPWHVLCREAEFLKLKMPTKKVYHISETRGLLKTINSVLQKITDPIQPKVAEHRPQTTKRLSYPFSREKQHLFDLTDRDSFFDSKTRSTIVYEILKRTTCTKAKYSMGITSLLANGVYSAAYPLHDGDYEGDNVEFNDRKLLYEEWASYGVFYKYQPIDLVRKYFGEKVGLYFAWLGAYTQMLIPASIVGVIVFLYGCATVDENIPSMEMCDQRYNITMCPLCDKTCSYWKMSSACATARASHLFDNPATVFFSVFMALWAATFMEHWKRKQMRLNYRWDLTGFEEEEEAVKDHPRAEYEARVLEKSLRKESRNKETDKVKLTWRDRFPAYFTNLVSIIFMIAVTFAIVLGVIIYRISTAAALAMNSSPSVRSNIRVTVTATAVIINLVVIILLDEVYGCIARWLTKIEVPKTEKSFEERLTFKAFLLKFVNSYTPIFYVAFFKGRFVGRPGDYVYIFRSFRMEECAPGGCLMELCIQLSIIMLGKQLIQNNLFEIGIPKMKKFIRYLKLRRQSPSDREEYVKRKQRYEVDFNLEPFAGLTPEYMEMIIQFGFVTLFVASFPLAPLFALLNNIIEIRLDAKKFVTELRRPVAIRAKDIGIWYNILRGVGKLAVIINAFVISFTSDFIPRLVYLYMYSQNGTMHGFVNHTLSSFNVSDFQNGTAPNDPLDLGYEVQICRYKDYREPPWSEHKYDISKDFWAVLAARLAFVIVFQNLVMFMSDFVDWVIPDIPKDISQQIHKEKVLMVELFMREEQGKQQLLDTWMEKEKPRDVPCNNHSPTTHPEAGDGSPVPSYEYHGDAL", "assay": "Global fit of 1PBC inhibition profiles to an open-channel block mechanism", "type": "cell-based", "excerpt": "The inhibition profiles of 1PBC at different Ca^2+ concentrations were fitted to a mechanism assuming that the blocker preferentially binds to the open state. This was incorporated by adding a blocker binding step to the open state in a gating mechanism that we described previously[28] (Supplementary Fig. 9a). The matrix notation of this mechanism[73] is 4 Q=−k01−bk07v07^δb/2k0100000bk07v07^δb/2k10−k10−k12k12000000k21−k21−k23−k24k23k2400000k32−k32−k35v35^δCa/20k35v35^δCa/20000xk42v42^δCa/20−xk42v42^δCa/2−k45k4500000xk53v53^δCa/2k54−xk53v53^δCa/2−k54−k56v56^δCa/2k56v56^δCa/2000000xk65v65^δCa/2−xk65v65^δCa/20k70v70^δb/2000000−k70v70^δb/2 where x and b are the molar concentration of Ca^2+ and the blocker respectively, and the subscripts indicate the transition described by the rate constant k in s^−1, for example, k01 corresponds to the rate constant of the transition from state 0 to 1. δb and δCa are the fraction of membrane potential that modulates the corresponding transitions. […]\nThe equilibrium occupancy of states was calculated using[73],[74]7 P∞=P(0)(Vλ=0V^−1λ=0) where P(0) is the initial occupancy and V can be obtained from the Eigen decomposition of Q8 Q=VΛV^−1 and9 Λ=λ1⋱λnV=v11⋯vn1⋮⋱⋮v1n⋯vnn are the Eigenvalue and Eigenvector matrices respectively. The open probability calculated using Eq. 7 was used to compute the squared difference for each data point. […]", "note": "Several values for one entry are separate records, joined by “and”; a condition that tells them apart may be missing. Equal entries are not always repeated."}
{"smiles": "N#Cc1c(C(F)(F)F)cc(O)n2c1nc1ccccc12", "note": "[1PBC]", "values": [{"measurement": "Apparent valence δb", "setting": "fit at +80 and −80 mV", "value": "~ 0.27 and 0.27 ± 0.025"}, {"measurement": "Kd", "setting": "zero mV, read-out: Kd 1PBC (open state)", "value": "~3.6 µM and 3.6 µM"}]}
